Test results from patent US20100021895A1, “Vectors for Inducing Homozygous Mutations and Methods of Using Same” (priority 2006, published 2010).

Test system: mouse embryonic stem cell clones, each containing a neomycin resistance gene (Neo) inserted by the GTR1.3 gene trap retrovirus
Test: Carcinogen-induced LOH: frequency of colony formation in 2.0 mg/ml G418
Assay type: cell-based
Settings: for fold increase of frequency of colony formation: 2 mg/ml G418 0.5 mM MNU
Experimental: Carcinogen-induced LOH was measured in a panel of 53 mouse embryonic stem cell clones, each containing a neomycin resistance gene (Neo) inserted into a different cellular gene (FIG. 9) by the GTR1.3 gene trap retrovirus. Gene entrapment by GTR1.3 involves selection for inserted Neo sequences that can splice to the 3′ ends of cellular genes (Lin et al.,). The disrupted genes were identified by sequencing Neo-gene fusion transcripts and were localized on the mouse genome. Previous studies have shown that cells homozygous for GTR1.3-induced mutations can be selected from heterozygous cells simply by selecting for resistance to higher concentrations of G418, a method first shown to select for homozygous mutations induced by gene targeting (15). Mitotic recombination appears to be the preferred mechanism of spontaneous LOH involving Neo genes inserted in ES cells (17) and LOH involving other genes and cell types in vivo (12, 13). LOH doubles the number of Neo genes per cell and thus allows moderately resistant cells to acquire resistance to higher concentrations of G418. The frequencies of spontaneous LOH measured at the 53 different sites ranged from 1.3×10^−5 to 1.2×10^−4 (Table 3), similar to those reported for other inserted neomycin resistance genes (15, 17) in ES cells and for loci such as TK and APRT in other cell types (12, 13).
A variety of chemical agents were tested for their ability to enhance the frequencies at which mutant cells survive in 2.0 mg/ml G418. Methyl-nitrosurea (MNU) is an alkylating agent that produces a variety of mono-methylated DNA adducts, hydroxyurea (HU) stalls DNA replication complexes, doxorubicin interferes with DNA synthesis, methothrexate is a competitive inhibitor of dihydrofolate reductase but is not genotoxic, diepoxybutane and mitomycin C induce inter-strand DNA crosslinks, UV irradiation causes intra- and inter-strand pyrimidine dimmers, and ethidium bromide intercalates between DNA strands to damage DNA (For additional information about these agents see http://toxnet.nlm.nih.gov and http://lisntweb.swan.ac.uk/cmgt/index.htm). […] The fold-increase for MNU and HU ranged from 39-123 and 18-68, respectively (Table 3). The optimal concentrations of each agent to stimulate colony formation with minimal toxicity (<5% loss of cell viability) were determined in advance (FIG. 13). […] Each of these agents was tested two or more times on at least 25 entrapment lines.
Serially diluted cells were plated onto 150 mm plates containing drug-free media and allowed to attach overnight. Unattached cells were removed and media containing the indicated concentrations of methyl-nitrosourea, hydroxyurea, ethidium bromide, doxorubicin, methotrexate, diepoxybutane, or mitomycin C was put onto cells for 4 hours (or cells were exposed to ultraviolet light in the absence of media and allowed to recover in drug-free media for 4 hours). Cells were then rinsed twice with drug-free media and selection media containing 0.0, 0.3, or 2.0 mg/ml G418 was put onto cells. After 12 days of selection, the number of colonies surviving was counted and the frequency of colony formation was determined by dividing the number of colonies obtained from 2.0 mg/ml G418 selection to that obtained from parallel experiments with 0.3 mg/ml G418 selection. TK gene loss was assessed following selection in media containing 2 μg/ml gancyclovir.
Table 3. The frequency of colony formation in high concentrations of G418. The frequency of colony formation is listed for all 53 clones examined. Frequency was determined by dividing the number of colonies surviving 2.0 mg/ml G418 selection to the number surviving parallel experiments with 0.3 mg/ml G418 selection, and is the average of at least 3 independent experiments for each clone. Standard deviations, which ranged from 5 to 70% of the mean values, have been omitted for clarity. […]

CN(N=O)C(N)=O [MNU, methyl-nitrosourea]
number of colonies surviving in high G418 (0.5 mM MNU or 0.25 mM HU (FIG. 10)): dramatically increased | fold-increase of colonies surviving in high G418, range over clones (0.5 mM MNU, Table 3 clones): 39-123 fold | fold increase of frequency of colony formation (clone b2p1-a5 (12C3)): (+61-fold) | fold increase of frequency of colony formation (clone b2p1-a9 (2H1)): (+53-fold) | fold increase of frequency of colony formation (clone b2p1-b4 (9E1)): (+53-fold) | fold increase of frequency of colony formation (clone b2p1-b9 (4B1)): (+59-fold) | fold increase of frequency of colony formation (clone b2p1-c6 (19A)): (+39-fold) | fold increase of frequency of colony formation (clone b2p1-d3 (19C1)): (+41-fold) | fold increase of frequency of colony formation (clone b2p1-d8 (4D2.3)): (+52-fold) | fold increase of frequency of colony formation (clone b2p1-d9 (7E3)): (+75-fold) | fold increase of frequency of colony formation (clone b2p1-d10 (9A1)): (+76-fold) | fold increase of frequency of colony formation (clone b2p1-e3 (4D2.3)): (+54-fold) | fold increase of frequency of colony formation (clone b2p1-e10 (19C1)): (+54-fold) | fold increase of frequency of colony formation (clone b2p1-f3 (17E1.3)): (+51-fold) | fold increase of frequency of colony formation (clone b2p1-f10 (3F2.1)): (+91-fold) | fold increase of frequency of colony formation (clone b2p1-f12 (1H5)): (+77-fold) | fold increase of frequency of colony formation (clone b2p1-h1 (7A2)): (+63-fold) | fold increase of frequency of colony formation (clone b2p1-h5 (1H5)): (+75-fold) | fold increase of frequency of colony formation (clone b2p1-h8 (6A3.3)): (+68-fold) | fold increase of frequency of colony formation (clone b3p1-h1 (18E2)): (+55-fold) | fold increase of frequency of colony formation (clone b3p3-a4 (4A5)): (+78-fold) | fold increase of frequency of colony formation (clone b3p3-a9 (4A5)): (+49-fold) | fold increase of frequency of colony formation (clone b3p3-b6 (3F1)): (+60-fold) | fold increase of frequency of colony formation (clone b3p3-c8 (14A3)): (+73-fold) | fold increase of frequency of colony formation (clone b3p3-c12 (5G2)): (+29-fold) | fold increase of frequency of colony formation (clone b3p3-d4 (1C3)): (+43-fold) | fold increase of frequency of colony formation (clone b3p3-d8 (1C2)): (+123-fold) | fold increase of frequency of colony formation (clone b3p3-d9 (4E2)): (+89-fold) | fold increase of frequency of colony formation (clone b3p3-g6 (10C2)): (+59-fold) | fold increase of frequency of colony formation (clone b3p3-g10 (4E1)): (+58-fold) | fold increase of frequency of colony formation (clone b3p3-h2 (19C1)): (+73-fold) | fold increase of frequency of colony formation (clone b3p3-h4 (5E2)): (+70-fold) | fold increase of frequency of colony formation (clone b3p3-h8 (19A)): (+105-fold) | fold increase of frequency of colony formation (clone b3p4-a1 (4A4)): (+69-fold) | fold increase of frequency of colony formation (clone b3p4-a5 (3B)): (+47-fold) | fold increase of frequency of colony formation (clone b3p4-b1 (3A2)): (+45-fold) | fold increase of frequency of colony formation (clone b3p4-b2 (11B1.3)): (+54-fold) | fold increase of frequency of colony formation (clone b3p4-b8 (4C6)): (+63-fold) | fold increase of frequency of colony formation (clone b3p4-b12 (3A1)): (+52-fold) | fold increase of frequency of colony formation (clone b3p4-c1 (17B3)): (+69-fold) | fold increase of frequency of colony formation (clone b3p4-c2 (8C3)): (+76-fold) | fold increase of frequency of colony formation (clone b3p4-c9 (15F2)): (+39-fold) | fold increase of frequency of colony formation (clone b3p4-c12 (17E2)): (+74-fold) | fold increase of frequency of colony formation (clone b3p4-d10 (14E5)): (+88-fold) | fold increase of frequency of colony formation (clone b3p4-d12 (1C3)): (+82-fold) | fold increase of frequency of colony formation (clone b3p4-e1 (2G3)): (+65-fold) | fold increase of frequency of colony formation (clone b3p4-e3 (15D3)): (+73-fold) | fold increase of frequency of colony formation (clone b3p4-e7 (12C1)): (+43-fold) | fold increase of frequency of colony formation (clone b3p4-f2 (4E1)): (+55-fold) | fold increase of frequency of colony formation (clone b3p4-f6 (7E3)): (+48-fold) | fold increase of frequency of colony formation (clone b3p4-f10 (8A4)): (+81-fold) | fold increase of frequency of colony formation (clone b3p4-g3 (1C3)): (+81-fold) | fold increase of frequency of colony formation (clone b3p4-g8 (10C1)): (+75-fold) | fold increase of frequency of colony formation (clone b3p4-g9 (2C2)): (+65-fold) | fold increase of frequency of colony formation (clone b3p4-h11 (8A1.1)): (+65-fold) | survival of mutant ES cells in media containing 2.0 mg/ml G418 (ES cells heterozygous for Xrcc5 entrapment mutation, 4 hours with 0.5 mM methyl-nitrosourea, 0.25 mM hydroxyurea or 100 ng/ml diepoxybutane): enhances the survival | overall extent of LOH induced (single exposure to non-toxic levels): ~1 % of the genome
